Measured values reported in publication PMC11952846, “The sterol-regulating human ARV1 binds cholesterol and phospholipids through its conserved ARV1 homology domain” (The Journal of Biological Chemistry, 2025).
pEC50: −log10 of the molar value.

Key:
GST-ARV1-N98 K54/K59A = target: T1, GST-ARV1-N98 K54/K59A (Homo sapiens, UniProt Q9H2C2, K54A/K59A); assay: Liposome binding assay, site-directed mutant; conditions: PC:PL, sulfatide liposomes
T1 construct: Expresses amino-terminal 98 amino acids of ARV1; made in house; host or cells: E. coli BL21 (pGEX-4T1)

GST-ARV1-N98 N94Q = target: T2, GST-ARV1-N98 N94Q (Homo sapiens, UniProt Q9H2C2, N94Q); assay: Liposome binding assay, site-directed mutant; conditions: PI(4)P liposomes
T2 construct: Expresses amino-terminal 98 amino acids of ARV1; made in house; host or cells: E. coli BL21 (pGEX-4T1)

6XHIS-ARV1-N98 = target: T3, 6XHIS-ARV1-N98 (Homo sapiens, UniProt Q9H2C2); assay: HTRF phospholipid lipid-binding assay; conditions: biotinylated lipid (Bio-PL) titrated, 0.75 μM protein; lipid labels mean the biotinylated lipids
T3 construct: made in house; host or cells: E. coli BL21
T3 sequence (Q9H2C2 1-98): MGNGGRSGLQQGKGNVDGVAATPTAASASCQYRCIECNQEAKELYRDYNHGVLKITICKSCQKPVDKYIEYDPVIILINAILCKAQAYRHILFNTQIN
Text: An HTRF assay was developed for 6XHIS-ARV1-N98-lipid binding. HTRF measures analyte interactions through fluorescence resonance energy transfer technology and time-resolved measurements ([53]). The interaction between two molecules can be quantified through binding each individual molecule involved with a fluorescent label and then analyzing the transfer of energy between the initial donor fluorophore and the secondary acceptor fluorophore. Following excitation of the first fluorophore, transfer of energy can only occur if the molecules bound with the fluorescent tags are within proximity to each other.
Assays were plated in 384-well flat bottom microplates (Greiner Bio, catalog #784075-25). Proteins were diluted using binding buffer (20 mM Hepes buffer, pH 7.2, containing 0.1% BSA, and 0.01% Tween20) to a stock concentration of 0.75 μM, and biotinylated phospholipids were dispensed, dried under nitrogen gas, and resuspended in binding buffer to a stock concentration of 50 μM. The lipid stock solution was diluted by 1:2 for a series of 12 serial dilutions. For the assay, in sequential order, 6 μl of binding buffer was loaded into the plate in triplicate for each dilution of phospholipid. To this, 2 μl of 0.75 μM 6XHIS-ARV1-N98 was added, followed by 2 μl of biotinylated phospholipid. Immediately following each addition loaded into the plate, the plate was centrifuged for 1 min at 1000 rpm to bring the contents to the bottom of the well. Next, detection antibodies were mixed with detection buffer (20 mM Hepes buffer, pH 8.5, containing 0.01% BSA and 200 mM KF). […] Plates were read on a PerkinElmer EnVision Xcite Multilabel plate reader.
Curves were logarithmically transformed and normalized to a common scale before being fit with a nonlinear regression of the agonist against the normalized response. […] For phospholipid competition analysis, IC50; M values were determined using nonlinear regression of the inhibitor against normalized response.

GST-ARV1-N98 K84A = target: T4, GST-ARV1-N98 K84A (Homo sapiens, UniProt Q9H2C2, K84A); assay: Liposome binding assay, site-directed mutant; conditions: PE liposomes
T4 construct: Expresses amino-terminal 98 amino acids of ARV1; made in house; host or cells: E. coli BL21 (pGEX-4T1)

GST-ARV1-N98 E70A = target: T5, GST-ARV1-N98 E70A (Homo sapiens, UniProt Q9H2C2, E70A); assay: Liposome binding assay, site-directed mutant; conditions: PE liposomes
T5 construct: Expresses amino-terminal 98 amino acids of ARV1; made in house; host or cells: E. coli BL21 (pGEX-4T1)
T5 sequence (Q9H2C2 1-98 E70A): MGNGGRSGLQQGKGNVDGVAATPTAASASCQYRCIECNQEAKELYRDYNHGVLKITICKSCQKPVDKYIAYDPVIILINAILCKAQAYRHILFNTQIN

T2 sequence (Q9H2C2 1-98 N94Q): as the sequence (Q9H2C2 1-98 E70A) above, with A70E, N94Q counted along it
T4 sequence (Q9H2C2 1-98 K84A): as the sequence (Q9H2C2 1-98 E70A) above, with A70E, K84A counted along it
T1 sequence (Q9H2C2 1-98 K54A/K59A): as the sequence (Q9H2C2 1-98 E70A) above, with K54A, K59A, A70E counted along it

Molecule: CCCCCCCC/C=C\CCCCCCCC(=O)OC[C@H](COP(=O)(O)OCC(O)CO)OC(=O)CCCCCCC/C=C\CCCCCCCC (stereo partly drawn) [PG, phosphatidylglycerol]
- liposome binding (GST-ARV1-N98 K54/K59A): unable to bind

Molecule: CCCCCC(=O)O[C@H](COC(=O)CCCCCNC(=O)CCCC[C@@H]1SC[C@@H]2NC(=O)N[C@@H]21)COP(=O)(O)O[C@H]1[C@H](O)[C@@H](O)[C@H](OP(=O)(O)O)[C@@H](O)[C@H]1O [reference compound]
- liposome binding (GST-ARV1-N98 N94Q): lost the ability to bind

Molecule: phosphatidylcholine [PC]
- pEC50 (6XHIS-ARV1-N98): 5.96

Molecule: phosphatidylethanolamine [PE]
- pEC50 (6XHIS-ARV1-N98): 5.28
- liposome binding (GST-ARV1-N98 K84A): showed binding
- liposome binding (GST-ARV1-N98 E70A): showed binding
